In patent US6451361B1, “Alkali metal magnesium phosphate hydrate buffering feed mineral” (Agri-Nutrients Technology Group, Inc., priority 2001, dated 2002):
Like-named read-outs stand apart in the source and are kept apart here.

Key:
[1] = Buffer capacity by titration to pH 6 with 0.1N hydrochloric acid; type: physicochemical
Text: (§1) The example compares performance of compositions of the instant invention with sodium bicarbonate, with regard to original pH, and amount of acid buffered to pH 6. One gram of buffering agent was mixed with 100 grams water and titrated to pH 6 by 0.1N hydrochloric acid.

[2] = pH of buffering agent in water; type: physicochemical
Text: Materials frequently used in the art to buffer digestive fluids are sodium bicarbonate and magnesium oxide. […] Over-treatment with buffer may be caused by errors in estimates of animal size, and the composition of the digestive fluid and by errors in measuring the amounts of the buffering material.
as §1

[3] = test system: rumen juices of a ruminant animal; details: steer, 50 lbs/day ration, three days on ration
Text: A ruminating steer weighing about 1100 pounds which had been fistulated so that rumen fluid samples could be withdrawn as desired for pH measurement was used in experiments in which the steer was fed a constant high energy ration typical of a finishing feedlot ration. The only change in the rations were in the types and amounts of buffering agent used. The buffering agents were blended into the feed ration prior to its use. The fistulated steer received the same buffered feed ration for three days prior to sampling the rumen fluid and determining pH.

[4] = test system: newly hatched broiler chicks; assay: 21-day broiler chick feeding test of phosphorus bioavailability and weight gain; type: in vivo; details: 21 days
Method: The tests were conducted at a University Test Facility starting with newly hatched broiler chicks. The test was carried out over a 21-day period. Weight gain was measured in each group of 10 chicks. Also measured at the end of the test were weight gain/weight of feed, weight percent ash in the tibia, and the relative bioavailability.
Measurements were made comparing the results obtained with the test material and the Standard NRC technical grade hydrous dibasic calcium phosphate.

Buffer Capacity m.eg. of HCl brought to pH per gram compound ([1]; 1 gram in 100 grams water, titrated to pH 6 by 0.1N hydrochloric acid)	speed of changes in pH when combined with aqueous acid ([1]; during titration with 0.1N hydrochloric acid)	pH of Buffer 5% in H2O [2]	Compound	pH of Rumen Sample ([3]; buffer amount 0.5/1.00 lbs/%)	pH of Rumen Sample ([3]; buffer amount 0.8/1.60 lbs/%)	Ash Content of Tibia, Wt % ([4]; Added P in feed 0.15 Wt %)	Avg. Wt. Gain, Gms ([4]; Added P in feed 0.15 Wt %)	Wt. Gain, gms per grm feed ([4]; Added P in feed 0.15 Wt %)	Ash Content of Tibia, Wt % ([4]; Added P in feed 0.25 Wt %)	Avg. Wt. Gain, Gms ([4]; Added P in feed 0.25 Wt %)	Wt. Gain, gms per grm feed ([4]; Added P in feed 0.25 Wt %)	Ash Content of Tibia, Wt % ([4]; Added P in feed 0.35 Wt %)	Avg. Wt. Gain, Gms ([4]; Added P in feed 0.35 Wt %)	Wt. Gain, gms per grm feed ([4]; Added P in feed 0.35 Wt %)
10.0 m.eg. of HCl per gram compound	about instant	9.0	O=C([O-])O.[Na+] [NaHCO3, sodium bicarbonate]	6.7	7.4									
			hydrous dibasic calcium phosphate [Standard Phosphorus Source]			40.5 Wt %	639.6 Gms	0.688 gms per grm feed	41.5 Wt %	664.6 Gms	0.725 gms per grm feed	42.5 Wt %	667.7 Gms	0.722 gms per grm feed
